Measurements as given in patent US20120121540A1 (priority 2007, published 2012).

Assay: HCV replicon assay (luciferase reporter, ET cell line)
Assay type: cell-based
Details: Hepatitis C virus, HCV replicon luciferase activity in ET cells
Summary of the method: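 EC50 and, via WST-1 cytotoxicity, TC50 were fitted with a Hill-coefficient equation to % inhibition across 10 two-fold dilutions. Compounds at 0.1 nM-[…] with 0.5% DMSO were applied 24 h post-seeding to replicon-bearing ET cells (luc-ubi-neo/NS3-5B, adaptive mutations). Firefly luciferase signal was measured after 48-72 h.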

Row | Compound | inhibition at 10 µM [%]
1 | Cn1nccc1C1=CCN(C(=O)c2nc3c(C(F)(F)F)cc(-c4ccoc4)cn3c2Cl)CC1 [Compound 586, (3-Chloro-6-furan-3-yl-8-trifluoromethyl-imidazo[1,2-a]pyridine-2-yl)-[4-(2-methyl-2H-pyrazol-3-yl)-3,6-dihydro-2H-pyridin-1-yl]-methanone] | 86
2 | O=C(c1nc2c(C(F)(F)F)cc(-c3cn[nH]c3)cn2c1Br)N1CC=C(c2cccs2)C1 [Compound 442, [3-Bromo-6-(1H-pyrazol-4-yl)-8-trifluoromethyl-imidazo[1,2-a]pyridine-2-yl]-(3-thiophen-2-yl-2.5-dihydro-pyrrol-1-yl)-methanone] | 99.5
3 | O=C(c1nc2c(C(F)(F)F)cc(-c3ccoc3)cn2c1Cl)N1CCC(n2c(=O)[nH]c3ccccc32)CC1 [Compound 552, 1-[1-(3-Chloro-6-furan-3-yl-8-trifluoromethyl-imidazo[1,2-a]pyridine-2-carbonyl)-piperidin-4-yl]-1,3-dihydro-benzoimidazol-2-one] | 6
4 | CN(C)Cc1cccc(-c2cc(C(F)(F)F)c3nc(C(=O)N4CCC(c5ccc(F)cc5)C4)c(Cl)n3c2)c1 (centres unmarked) [Compound 354, [3-Chloro-6-(3-dimethylaminomethyl-phenyl)-8-trifluoromethyl-imidazo[1,2-a]pyridin-2-yl]-[3-(4-fluoro-phenyl)-pyrrolidin-1-yl]-methanone] | 97.8
5 | O=C(NCc1cccs1)c1nc2c(C(F)(F)F)cc(C3=CCCCC3)cn2c1Cl [Compound 282, 3-Chloro-6-cyclohex-1-enyl-8-trifluoromethyl-imidazo[1,2-a]pyridine-2-carboxylic acid (thiophen-2-ylmethyl)-amide] | 97.6
6 | O=C(NCc1cccs1)c1nn2c(I)cc(-c3ccccc3)cc2c1Br [Compound 120, 3-Bromo-7-iodo-5-phenyl-pyrazolo[1,5-a]pyridine-2-carboxylic Acid (thiophen-2-ylmethyl)-amide] | 66.6
7 | O=C(c1nc2c(C(F)(F)F)cc(-c3ccoc3)cn2c1Cl)N1CC=C(c2ccccc2)CC1 [Compound 594, (3-Chloro-6-furan-3-yl-8-trifluoromethyl-imidazo[1,2-a]pyridin-2-yl)-(4-phenyl-3,6-dihydro-2H-pyridin-1-yl)-methanone] | 88.5
8 | O=C(Cc1ccccc1)NCc1nc2c(C(F)(F)F)cc(-c3ccoc3)cn2c1Cl [Compound 389, N-(3-Chloro-6-furan-3-yl-8-trifluoromethyl-imidazo[1,2-a]pyridin-2-ylmethyl)-2-phenyl-acetamide] | 45.3
9 | O=C(c1nc2c(C(F)(F)F)cc(-c3ccoc3)cn2c1Cl)N1N=C(c2ccoc2)CC1c1cc(Br)ccc1O (centres unmarked) [Compound 472, [5-(5-Bromo-2-hydroxy-phenyl)-3-furan-3-y-4,5-dihydro-pyrazol-1-yl]-(3-chloro-6-furan-3-yl-8-trifluoromethyl-imidazo[1,2-a]pyridin-2-yl)-methanone] | 86.6
10 | O=C(NCc1ccccc1)c1nc2c(C(F)(F)F)cc(-c3ccco3)cn2c1Cl [Compound 174, 3-Chloro-6-furan-2-yl-8-trifluoromethyl-imidazo[1,2-a]pyridine-2-carboxylic acid benzylamide] | 85.7
11 | O=C(NCc1ccc(C(F)(F)F)cc1)c1nc2c(C(F)(F)F)cc(-c3ccco3)cn2c1Cl [Compound 181, 3-Chloro-6-furan-2-yl-8-trifluoromethyl-imidazo[1,2-a]pyridine-2-carboxylic acid 4-trifluoromethyl-benzylamide] | 48.2
12 | O=C(NCc1cccs1)c1nn2c(I)cc(-c3ccccc3)cc2c1Cl [Compound 121, 3-Chloro-7-iodo-5-phenyl-pyrazolo[1,5-a]pyridine-2-carboxylic Acid (thiophen-2-ylmethyl)-amide] | 73.9
13 | O=C(c1nc2c(C(F)(F)F)cc(-c3ccoc3)cn2c1Cl)N1CC(NS(=O)(=O)c2cccs2)C1 [Compound 499, Thiophene-2-sulfonic acid [1-(3-chloro-6-furan-3-yl-8-trifluoromethyl-imidazo[1,2-a]pyridine-2-carbonyl)-azetidin-3-yl]-amide] | 93.4
14 | O=C(NCc1cccc(C(F)(F)F)c1)c1nc2c(C(F)(F)F)cc(-c3ccco3)cn2c1Cl [Compound 180, 3-Chloro-6-furan-2-yl-8-trifluoromethyl-imidazo[1,2-a]pyridine-2-carboxylic acid 3-trifluoromethyl-benzylamide] | 20.4
15 | O=C(NCc1cccs1)c1cn2cc(-c3cccc(F)c3)cc(C(F)(F)F)c2n1 [Compound 314, 6-(3-Fluoro-phenyl)-8-trifluoromethyl-imidazo[1,2-a]pyridine-2-carboxylic Acid (thiophen-2-ylmethyl)-amide] | 49.6
16 | Cc1noc(C2CCN(C(=O)c3nc4c(C(F)(F)F)cc(-c5ccoc5)cn4c3Cl)C2)n1 (centres unmarked) [Compound 475, (3-Chloro-6-furan-3-yl-8-trifluoromethyl-imidaz[1,2-a]pyridin-2-yl)-[3-(3-methyl-[1,2,4]oxadiazol-5-yl)-pyrrolidin-1-yl]-methanone] | 93
17 | O=C(NCc1cccs1)c1nc2c(C(F)(F)F)cc(-c3ccco3)cn2c1Cl [Compound 152, 3-Chloro-6-furan-2-yl-8-trifluoromethyl-imidazo[1,2-a]pyridine-2-carboxylic acid (thiophen-2-ylmethyl)-amide] | 92.5
18 | O=C(c1nc2c(C(F)(F)F)cc(-c3cn[nH]c3)cn2c1Br)N1CCN(c2nccs2)CC1 [Compound 610, [3-Bromo-6-(1H-pyrazol-4-yl)-8-trifluoromethyl-imidazo[1,2-a]pyridin-2-yl]-(4-thiazol-2-yl-piperazin-1-yl)-methanone] | 68.7
19 | O=C(c1nc2c(C(F)(F)F)cc(-c3cn[nH]c3)cn2c1I)N1CCC(c2cccc(F)c2)C1 (centres unmarked) [Compound 659] | 93.8
20 | O=C(c1nc2c(C(F)(F)F)cc(-c3ccccc3)nn2c1Br)N1CCC(c2ccc(F)cc2)C1 (centres unmarked) [Compound 252, (3-Bromo-6-phenyl-8-trifluoromethyl-imidazo[1,2-b]pyridazin-2-yl)-[3-(4-fluoro-phenyl)-pyrrolidin-1-yl]-methanone] | 84.8
21 | Nc1nc(-c2cc(C(F)(F)F)c3nc(C(=O)N4CCC(c5cccc(F)c5)C4)c(Cl)n3c2)cs1 (centres unmarked) [Compound 643, 2[6-(2-Amino-thiazol-4-yl)-3-chloro-8-trifluoromethyl-imidazo[1,2-a]pyridin-2-yl]-[3-(3-fluoro-phenyl)-pyrrolidin-1-yl]-methanone] | 74.5
22 | Cc1nc(C)c(-c2cc(C(F)(F)F)c3nc(C(=O)NCc4cccs4)c(Cl)n3c2)s1 [Compound 289, 3-Chloro-6-(2,4-dimethyl-thiazol-5-yl)-8-trifluoromethyl-imidazo[1,2-a]pyridine-2-carboxylic Acid (thiophen-2-ylmethyl)-amide] | 30.3
23 | O=C(c1nc2c(C(F)(F)F)cc(-c3ccoc3)cn2c1Cl)N1CCC(c2ncon2)C1 (centres unmarked) [Compound 417, (3-Chloro-6-furan-3-yl-8-trifluoromethyl-imidazo[1,2-a]pyridine-2-yl)-(3-[1,2,4]oxadiazol-3-yl-pyrrolidin-1-yl)-methanone] | 96.5
